± gives the expanded uncertainty stated by the source.
Settings: Liquid, Ebulliometric method (Recirculating still)

Row | SMILES | vapor or sublimation pressure (253.15 K) [kPa] | vapor or sublimation pressure (263.15 K) [kPa] | vapor or sublimation pressure (278.15 K) [kPa] | vapor or sublimation pressure (292.92 K) [kPa]
1 | CCF [fluoroethane] | 214 ± 10 | 311 ± 10 | 517 ± 10 | 802 ± 10
2 | FCC(F)(F)F [1,1,1,2-tetrafluoroethane] | 131 ± 10 | 203 ± 10 | 353 ± 10 | 571 ± 10
